Experimental data as given in patent publication US6906081B2, “Use of dual H3/M2 antagonists in the treatment of cognition deficit disorders” (Schering Corporation, priority 2001, dated 2005).

Experiments:
H3 receptor = molecular target: T1, H3 receptor (Cavia porcellus, UniProt Q9JI35); assay: H3 receptor binding, displacement of radiolabeled Nα-methylhistamine from guinea pig brain membranes; details: affinity for the H3 receptor
T1 construct: from tissue; host or cells: guinea pig brain membranes
Excerpt: Compounds can readily be evaluated to determine activity at H3 receptors by known methods, including the guinea pig brain membrane assay and the guinea pig neurogenic ileum contraction assay, both of which are described in U.S. Pat. No. 5,352,707. Another useful assay utilizes rat brain membranes and is described by West et al., “Identification of Two H3-Histamine Receptor Subtypes,” Molecular Pharmacology, Vol. 38, pages 610-613 (1990).
A particularly useful screening assay measures binding to sites in guinea pig brain membranes. This test is described in detail by Korte et al., “Characterization and Tissue Distribution of H3 Histamine Receptors in Guinea Pigs by N^α-Methylhistamine,” in Biochemical and Biophysical Research Communications, Vol. 168, pages 979-986 (1990), and quantifies the displacement of bound radiolabeled N^α-methylhistamine from tissues by candidate compounds. Results are expressed as “Ki” values, in nanoMolar (nM) units, which values can be considered as being dissociation constants for the H3 antagonist on the H3 receptor system, or an index of antagonist affinity for the receptor. In general, Ki values less than about 200 nM are considered necessary for an agent to be useful as an H3 antagonist in the invention.

[1] = molecular target: T2, cloned human m2 muscarinic receptor (Homo sapiens, UniProt P08172); assay: Binding to cloned human m2 muscarinic receptor (3H-QNB, CHO cell membranes); details: affinity for the m2 receptor; 3H-QNB displacement
T2 sequence (P08172 1-466): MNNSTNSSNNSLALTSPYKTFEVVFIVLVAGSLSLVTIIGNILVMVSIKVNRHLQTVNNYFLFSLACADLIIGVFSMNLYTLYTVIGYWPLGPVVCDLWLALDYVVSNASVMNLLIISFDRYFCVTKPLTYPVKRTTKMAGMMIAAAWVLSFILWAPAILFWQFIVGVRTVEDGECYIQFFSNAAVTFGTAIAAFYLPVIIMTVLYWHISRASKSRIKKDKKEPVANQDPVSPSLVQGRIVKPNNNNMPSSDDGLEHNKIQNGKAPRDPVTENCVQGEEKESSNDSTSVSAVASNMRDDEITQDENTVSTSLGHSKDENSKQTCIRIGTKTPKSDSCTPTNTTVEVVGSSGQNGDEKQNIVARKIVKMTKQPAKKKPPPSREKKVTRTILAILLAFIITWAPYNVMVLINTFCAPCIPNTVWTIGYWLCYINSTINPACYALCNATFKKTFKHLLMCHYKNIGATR

T1 sequence (Q9JI35 whole entry): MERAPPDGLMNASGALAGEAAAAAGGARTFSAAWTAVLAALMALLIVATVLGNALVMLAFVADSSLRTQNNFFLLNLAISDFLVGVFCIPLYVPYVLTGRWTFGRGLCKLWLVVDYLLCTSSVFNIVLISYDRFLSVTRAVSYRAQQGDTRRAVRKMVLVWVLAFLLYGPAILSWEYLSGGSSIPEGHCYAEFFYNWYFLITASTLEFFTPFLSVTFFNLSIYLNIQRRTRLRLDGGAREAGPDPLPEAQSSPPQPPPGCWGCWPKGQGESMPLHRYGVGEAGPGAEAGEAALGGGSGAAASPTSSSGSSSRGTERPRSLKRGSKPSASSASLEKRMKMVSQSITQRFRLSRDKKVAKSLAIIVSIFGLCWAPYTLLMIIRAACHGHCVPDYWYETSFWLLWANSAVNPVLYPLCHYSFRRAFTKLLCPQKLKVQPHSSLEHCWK

Row | Compound | Ki (H3 receptor) [nM] | Ki [1] [nM]
1 | CCN(CC)CCOc1ccc(CN2CCC(C3CCN(Cc4ccc(S(=O)(=O)c5ccc6c(c5)OCO6)cc4)CC3)CC2)cc1 [Compound 7] | 22 | 0.07
2 | O=C(NCC1CC1)c1ccc(CN2CCC(C3CCN(Cc4ccc(S(=O)(=O)c5ccc6c(c5)OCO6)cc4)CC3)CC2)cc1 [Compound 9] | 290 | 0.22
3 | CN(C)CCCOc1ccc(CN2CCC(N3CCC(C(=O)c4ccc(S(=O)(=O)c5ccc6c(c5)OCO6)cc4)CC3)CC2)cc1 [Compound 10] | 15 | 0.019
4 | c1ccc(CN2CCC(C3CCN(Cc4ccccc4)CC3)CC2)cc1 [Compound 4] | 620 | 3.4
5 | CCCCOc1ccc(CN2CCC(N3CCC(C(=O)c4ccc(S(=O)(=O)c5ccc6c(c5)OCO6)cc4)CC3)CC2)cc1 [Compound 12] | 170 | 4.8
6 | CC(C)(C)OC(=O)N1CCC(C2CCN(Cc3ccc(S(=O)(=O)c4ccc5c(c4)OCO5)cc3)CC2)CC1 [Compound 5] | 430 | 2.6
7 | CCN(CC)CCOc1ccc(CN2CCC(N3CCC(C4(c5ccc(S(=O)(=O)c6ccc7c(c6)OCO7)cc5)OCCO4)CC3)CC2)cc1 [Compound 14] | 2 | 0.7
8 | CN(C)CCCOc1ccc(CN2CCC(N3CCC(C4(c5ccc(S(=O)(=O)c6ccc7c(c6)OCO7)cc5)OCCO4)CC3)CC2)cc1 [Compound 13] | 12 | 0.8
9 | CCN(CC)CCOc1ccc(CN2CCC(C3CCN(Cc4ccc(C(=O)NC(C)C)cc4)CC3)CC2)cc1 [Compound 1] | 18 | 0.17
10 | CCCS(=O)(=O)N1CCC(N2CCC(C3(c4ccc(S(=O)(=O)c5ccc6c(c5)OCO6)cc4)OCCO3)CC2)CC1 [Compound 2] | 140 | 0.01

The remaining compounds from weak to strong by Ki (H3 receptor), led by results:

Row | Ki (H3 receptor) [nM] | Ki [1] [nM] | Compound
11 | 500 | 0.125 | O=C(NCC1CC1)c1ccc(CN2CCC(C3CCN(Cc4ccc(C(=O)NCC5CC5)cc4)CC3)CC2)cc1 [Compound 3]
12 | 160 | 1.2 | Cc1ccccc1C(=O)N1CCC(C2CCN(Cc3ccc(S(=O)(=O)c4ccc5c(c4)OCO5)cc3)CC2)CC1 [Compound 6]
13 | 43 | 0.17 | CCCCOc1ccc(CN2CCC(N3CCC(C4(c5ccc(S(=O)(=O)c6ccc7c(c6)OCO7)cc5)OCCO4)CC3)CC2)cc1 [Compound 15]
14 | 8 | 0.018 | CCN(CC)CCOc1ccc(CN2CCC(N3CCC(C(=O)c4ccc(S(=O)(=O)c5ccc6c(c5)OCO6)cc4)CC3)CC2)cc1 [Compound 11]
15 | 6 | 0.05 | CN(C)CCCOc1ccc(CN2CCC(C3CCN(Cc4ccc(S(=O)(=O)c5ccc6c(c5)OCO6)cc4)CC3)CC2)cc1 [Compound 8]
